SMILES strings stand for the structures. Bounds are passed on as bounds.

This passage reports IC50 results from patent publication US10106523B2, “Amide compound” (ASTELLAS PHARMA INC., priority 2014, dated 2018).

One test has as its target T1, rat EP1 receptor (Rattus norvegicus, UniProt P70597).
T1 construct: expressed in transfected cells
T1 sequence (P70597 1-405): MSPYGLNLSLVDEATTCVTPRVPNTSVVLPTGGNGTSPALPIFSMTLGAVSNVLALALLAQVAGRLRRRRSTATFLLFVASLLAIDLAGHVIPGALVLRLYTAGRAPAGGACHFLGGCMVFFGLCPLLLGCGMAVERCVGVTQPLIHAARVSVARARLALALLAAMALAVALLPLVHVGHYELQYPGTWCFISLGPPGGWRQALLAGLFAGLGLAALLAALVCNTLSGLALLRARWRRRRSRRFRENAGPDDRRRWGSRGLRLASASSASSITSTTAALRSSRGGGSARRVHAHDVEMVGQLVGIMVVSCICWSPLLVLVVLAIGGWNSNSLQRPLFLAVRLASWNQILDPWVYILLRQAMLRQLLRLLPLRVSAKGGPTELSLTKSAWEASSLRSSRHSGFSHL
The test can be described thus: Selectivity test: antagonistic action on rat EP1 receptor (intracellular Ca2+, HEK-293 cells). In kind it is cell-based. The settings on record: PGE2 100 nmol/L, HEK-293 cells stably expressing rat EP1; read-out: Concentration up to which no inhibitory action of 50% or more on the increase in intracellular Ca2+ concentration due to PGE2 through the rat EP1 receptor. As for the experimental part:
(§1) Test Example 9: Evaluation Test of Receptor Antagonistic Action on Rat EP1/EP2/EP3 Receptor (Selectivity Test)
(§2) The antagonistic action of Compound A on other subtypes ([…], EP2, and EP3) of the rat-derived PGE2 receptor was evaluated. For EP1 and EP3, the intracellular Ca^2+ amount was used as an indicator, and for EP2, the intracellular cAMP amount was used as an indicator, so as to investigate the action of the test compound.
(§3) Construction of Rat EP1, EP2, or EP3 Receptor Expressing Vector: A rat EP1 receptor gene (GenBank accession No.: D88751.1), a rat EP2 receptor gene (GenBank accession No.: NM_031088.1), or a rat EP3 receptor gene (GenBank accession No.: NM_012704.1) were inserted respectively into an expression vector pcDNA3.1-V5-His-TOPO (Invitrogen Inc.).
(§4) Construction of Cell Stably Expressing Rat EP1, EP2, or EP3 Receptor: […]
(§5) The intracellular Ca^2+ concentration was measured using FLIPR tetra (Molecular Devices, LLC.) with the fluorescence intensity of the Dye as an indicator. […] By taking the Ca^2+ concentration when PGE2 was added to a final concentration of 100 nmol/L as 100%, and taking the Ca^2+ concentration when PGE2 was not added as 0%, the Ca^2+ concentration in percentage with a treatment with the compound was calculated.

A further test concerns the target T2, rat EP3 receptor (Rattus norvegicus, UniProt P34980).
T2 construct: expressed in transfected cells
T2 sequence (P34980 1-365): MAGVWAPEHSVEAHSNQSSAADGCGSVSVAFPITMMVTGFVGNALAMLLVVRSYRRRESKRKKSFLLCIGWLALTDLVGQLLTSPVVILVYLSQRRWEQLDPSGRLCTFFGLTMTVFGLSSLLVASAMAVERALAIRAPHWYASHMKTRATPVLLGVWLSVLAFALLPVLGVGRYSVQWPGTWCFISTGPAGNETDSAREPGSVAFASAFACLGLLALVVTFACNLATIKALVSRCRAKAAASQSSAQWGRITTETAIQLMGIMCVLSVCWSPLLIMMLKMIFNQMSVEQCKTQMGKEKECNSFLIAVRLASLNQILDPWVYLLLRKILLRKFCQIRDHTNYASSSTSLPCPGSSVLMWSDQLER
The test can be described thus: Selectivity test: antagonistic action on rat EP3 receptor (intracellular Ca2+, HEK-293 cells). Type of test: cell-based. The settings on record: PGE2 100 nmol/L, HEK-293 cells stably expressing rat EP3; read-out: Concentration up to which no inhibitory action of 50% or more on the increase in intracellular Ca2+ concentration due to PGE2 through the rat EP3 receptor. As for the experimental part:
as §1, §2, §3, §4, §5

Consider `Cc1nn(Cc2cc3ccccc3cn2)c(C(=O)N[C@@H](C)c2ccc(C(=O)O)cc2)c1Br` [Compound A, 4-[(1S)-1-({[4-bromo-1-(isoquinolin-3-ylmethyl)-3-methyl-1H-pyrazol-5-yl]carbonyl}amino)ethyl]benzoic acid], for which the IC50 on rat EP1 receptor and at rat EP3 receptor was more than 10 µM each time.
